Assay results published in ChEMBL document CHEMBL5247590, “Novel nitrogen mustard-artemisinin hybrids with potent anti-leukemia action through DNA damage and activation of GPx” (Eur J Med Chem, 2022).
Active and inactive are the calls of the source. No cut-off for these calls is given here.

Tests used:
[1] = tested on: CCRF-CEM; experiment: Induction of cell cycle arrest in human CCRF-CEM cells assessed as cell accumulation at G2/M phase at 0.5 uM incubated for 24 hrs by PI staining based flow cytometry analysis (reference value: 61.3 %); format: functional
[2] = tested on: CCRF-CEM; experiment: Induction of apoptosis in human CCRF-CEM cells assessed effect on procaspase-3 expression at 0.25 to 0.5 uM incubated for 48 hrs by Western blot analysis; format: functional, cell-based; conditions: dose 0.25-0.5 µM
[3] = tested on: CCRF-CEM; experiment: Induction of apoptosis in human CCRF-CEM cells assessed as necrotic cells at 0.25 uM incubated for 48 hrs by Annexin V-FITC/PI staining based flow cytometry (reference value: 0.0 %); format: functional
[4] = tested on: CCRF-CEM; experiment: Induction of cell cycle arrest in human CCRF-CEM cells assessed as cell accumulation at G1 phase at 0.5 uM incubated for 24 hrs by PI staining based flow cytometry analysis (reference value: 24.1 %); format: functional
[5] = tested on: CCRF-CEM; experiment: Induction of apoptosis in human CCRF-CEM cells assessed as viable cells at 0.5 uM incubated for 48 hrs by Annexin V-FITC/PI staining based flow cytometry (reference value: 83.4 %); format: functional; conditions: read-out: Activity
[6] = tested on: CCRF-CEM; experiment: Induction of apoptosis in human CCRF-CEM cells assessed as late apoptotic cells at 2 uM incubated for 48 hrs by Annexin V-FITC/PI staining based flow cytometry (reference value: 3.2 %); format: functional
[7] = tested on: CCRF-CEM; experiment: Induction of apoptosis in human CCRF-CEM cells assessed as viable cells at 2 uM incubated for 48 hrs by Annexin V-FITC/PI staining based flow cytometry (reference value: 83.4 %); format: functional; conditions: read-out: Activity
[8] = Antiproliferative activity against human L02 cells assessed as cell growth inhibition incubated for 72 hrs by MTT assay; format: toxicity, cell-based
[9] = tested on: U-118-MG; experiment: Antiproliferative activity against human U-118-MG cells assessed as cell growth inhibition incubated for 72 hrs by MTT assay; format: functional, cell-based
[10] = Selectivity index, ratio of IC50 for human K562 cells to IC50 for human CCRF-CEM cells
[11] = tested on: CCRF-CEM; experiment: Antiproliferative activity against human CCRF-CEM cells assessed as cell growth inhibition incubated for 72 hrs by MTT assay; format: functional, cell-based
[12] = tested on: CCRF-CEM; experiment: Induction of apoptosis in human CCRF-CEM cells assessed effect on cleaved caspase-3 expression at 0.25 to 0.5 uM incubated for 48 hrs by Western blot analysis; format: functional, cell-based; conditions: dose 0.25-0.5 µM
[13] = tested on: CCRF-CEM; experiment: Induction of apoptosis in human CCRF-CEM cells assessed as necrotic cells at 0.5 uM incubated for 48 hrs by Annexin V-FITC/PI staining based flow cytometry (reference value: 0.0 %); format: functional
[14] = tested on: CCRF-CEM; experiment: Induction of apoptosis in human CCRF-CEM cells assessed as necrotic cells at 2 uM incubated for 48 hrs by Annexin V-FITC/PI staining based flow cytometry (reference value: 0.0 %); format: functional
[15] = tested on: CCRF-CEM; experiment: Downregulation of ROS level in human CCRF-CEM cells assessed as CAT level at 1 uM incubated for 12 hrs in presence of NADPH by absorbance based assay; format: functional, cell-based
[16] = tested on: CCRF-CEM; experiment: Induction of cell cycle arrest in human CCRF-CEM cells assessed as cell accumulation at G1 phase at 0.25 uM incubated for 24 hrs by PI staining based flow cytometry analysis (reference value: 24.1 %); format: functional
[17] = tested on: CCRF-CEM; experiment: Induction of DNA damage in human CCRF-CEM cells assessed as increase in gammaH2AX phosphorylation incubated for 24 hrs by DAPI staining based immunofluorescence microscopic analysis; format: functional, cell-based; conditions: dose 1-4 µM
[18] = tested on: A549; experiment: Antiproliferative activity against human A549 cells assessed as cell growth inhibition incubated for 72 hrs by MTT assay; format: functional, cell-based; conditions: A549, 72 h
[19] = tested on: CCRF-CEM; experiment: Induction of apoptosis in human CCRF-CEM cells assessed as early apoptotic cells at 4 uM incubated for 48 hrs by Annexin V-FITC/PI staining based flow cytometry (reference value: 13.4 %); format: functional
[20] = tested on: CCRF-CEM; experiment: Induction of apoptosis in human CCRF-CEM cells assessed as early apoptotic cells at 1 uM incubated for 48 hrs by Annexin V-FITC/PI staining based flow cytometry (reference value: 13.4 %); format: functional
[21] = tested on: CCRF-CEM; experiment: Induction of apoptosis in human CCRF-CEM cells incubated for 48 hrs by Hoechst staining based fluorescent microscopy; format: functional, cell-based; conditions: dose 1-4 µM
[22] = Selectivity index, ratio of IC50 for human HL-60 cells to IC50 for human CCRF-CEM cells
[23] = tested on: CCRF-CEM; experiment: Induction of apoptosis in human CCRF-CEM cells assessed as necrotic cells at 1 uM incubated for 48 hrs by Annexin V-FITC/PI staining based flow cytometry (reference value: 0.0 %); format: functional
[24] = tested on: CCRF-CEM; experiment: Induction of apoptosis in human CCRF-CEM cells assessed as viable cells at 4 uM incubated for 48 hrs by Annexin V-FITC/PI staining based flow cytometry (reference value: 83.4 %); format: functional; conditions: read-out: Activity
[25] = tested on: HCT-116; experiment: Antiproliferative activity against human HCT-116 cells assessed as cell growth inhibition incubated for 72 hrs by MTT assay; format: functional, cell-based; conditions: HCT-116, 72 h
[26] = tested on: CCRF-CEM; experiment: Induction of apoptosis in human CCRF-CEM cells assessed as nuclear collapse upto 4 uM incubated for 48 hrs by Hoechst staining based fluorescent microscopic analysis; format: functional, cell-based
[27] = tested on: CCRF-CEM; experiment: Inhibition of cell proliferation in human CCRF-CEM cells assessed as decrease in cell number upto 4 uM incubated for 12 hrs by cell counter analysis; format: functional, cell-based

C[C@@H]1CC[C@H]2[C@@H](C)C(OC(=O)c3ccc(N(CCCl)CCCl)cc3)O[C@@H]3O[C@@]4(C)CC[C@@H]1[C@]32OO4 (some centres not stated)
Activity [1]: 70.8%
Activity [2]: inactive
Activity [3]: 0.1%
Activity [4]: 22.8%
viability at 0.5 µM [5]: 64.4%
Activity [6]: 12.8%
viability at 2 µM [7]: 53.8%
IC50 at 72 h [8]: > 40000 nM
IC50 [9]: > 40000 nM
Selectivity Index [10]: 1.82
IC50 [11]: 895 nM
AC30 [12]: inactive
Activity [13]: 0.1%
Activity [14]: 0.1%
Activity [15]: inactive
Activity [16]: 26.8%
Activity [17]: Dose-Dependent Effect
IC50 [18]: 2870 nM
Activity [19]: 37.3%
Activity [20]: 26.7%
Activity [21]: Dose-Dependent Effect
Selectivity Index [22]: 17.2
Activity [23]: 0.1%
viability at 4 µM [24]: 47.8%
IC50 [25]: 3100 nM
Activity [26]: Active
inhibition [27]: Active
